Results: the supplement of paper PMC12463676, “Small-molecule dissolution of stress granules by redox modulation benefits ALS models” (Nature Chemical Biology, 2025)

Compound: NC(=O)CCCCC1CCSS1 [lipoamide]
Experiment: thermal stability z-score vs DMSO; higher = more thermally stabilized by treatment
Settings: HeLa; lipoamide concentration 100 µM; arsenate co-treatment: none
Procedure: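 Cellular thermal proteome profiling in HeLa cells. Cells were treated with 100 µM lipoamide for 1 h, with or without 1 mM arsenate for a further 1 h, then heated to ten temperatures (37-66.3 °C), and soluble protein was quantified by TMT mass spectrometry relative to 0.1% DMSO controls. The thermal stability score (sum of log2 fold changes minus the abundance score) was transformed to a z-score; mean of n = 3 experiments.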
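Further: each temperature applied for 3 min, abundance score taken as mean log2 fold change at the two lowest temperatures, z-score obtained by mean subtraction and division by SD.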

Chain of UniProt Q96RL1 (Q96RL1 whole entry): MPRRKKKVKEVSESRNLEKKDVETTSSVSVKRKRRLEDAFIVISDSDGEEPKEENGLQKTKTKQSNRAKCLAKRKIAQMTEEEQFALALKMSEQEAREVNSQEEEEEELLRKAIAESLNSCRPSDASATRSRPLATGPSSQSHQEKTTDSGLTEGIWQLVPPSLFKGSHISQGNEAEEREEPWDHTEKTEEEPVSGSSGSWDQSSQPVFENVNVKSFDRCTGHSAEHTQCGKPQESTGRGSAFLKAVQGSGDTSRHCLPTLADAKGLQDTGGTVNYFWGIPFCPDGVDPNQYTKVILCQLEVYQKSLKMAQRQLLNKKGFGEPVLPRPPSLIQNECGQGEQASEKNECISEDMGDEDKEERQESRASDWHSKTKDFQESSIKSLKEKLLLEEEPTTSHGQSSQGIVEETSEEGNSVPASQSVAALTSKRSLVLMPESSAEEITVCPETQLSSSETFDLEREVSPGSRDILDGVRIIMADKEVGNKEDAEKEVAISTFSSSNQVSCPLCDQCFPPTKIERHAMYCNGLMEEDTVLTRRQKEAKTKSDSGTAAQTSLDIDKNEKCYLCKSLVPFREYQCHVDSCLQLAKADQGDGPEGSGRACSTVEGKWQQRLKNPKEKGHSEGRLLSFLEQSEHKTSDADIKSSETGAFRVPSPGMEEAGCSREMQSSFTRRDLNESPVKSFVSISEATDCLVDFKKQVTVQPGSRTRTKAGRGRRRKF
Chain of UniProt Q9NUP1 (Q9NUP1 whole entry): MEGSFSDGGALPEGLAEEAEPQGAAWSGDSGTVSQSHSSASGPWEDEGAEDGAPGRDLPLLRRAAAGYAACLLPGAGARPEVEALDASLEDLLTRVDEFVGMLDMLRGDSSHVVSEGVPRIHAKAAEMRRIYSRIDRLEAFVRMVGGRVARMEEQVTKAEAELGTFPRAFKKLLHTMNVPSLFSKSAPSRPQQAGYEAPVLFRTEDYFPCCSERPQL
Chain of UniProt Q13287 (Q13287 whole entry): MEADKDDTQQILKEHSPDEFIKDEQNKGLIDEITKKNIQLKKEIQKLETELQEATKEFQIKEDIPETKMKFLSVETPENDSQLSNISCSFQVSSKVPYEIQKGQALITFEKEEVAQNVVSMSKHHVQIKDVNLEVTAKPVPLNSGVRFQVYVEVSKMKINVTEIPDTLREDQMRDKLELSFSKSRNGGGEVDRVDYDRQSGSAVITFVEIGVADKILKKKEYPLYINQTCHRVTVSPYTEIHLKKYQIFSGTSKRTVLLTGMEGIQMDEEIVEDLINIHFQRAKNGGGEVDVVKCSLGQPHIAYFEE
Chain of UniProt Q9H788 (Q9H788 whole entry, looked up): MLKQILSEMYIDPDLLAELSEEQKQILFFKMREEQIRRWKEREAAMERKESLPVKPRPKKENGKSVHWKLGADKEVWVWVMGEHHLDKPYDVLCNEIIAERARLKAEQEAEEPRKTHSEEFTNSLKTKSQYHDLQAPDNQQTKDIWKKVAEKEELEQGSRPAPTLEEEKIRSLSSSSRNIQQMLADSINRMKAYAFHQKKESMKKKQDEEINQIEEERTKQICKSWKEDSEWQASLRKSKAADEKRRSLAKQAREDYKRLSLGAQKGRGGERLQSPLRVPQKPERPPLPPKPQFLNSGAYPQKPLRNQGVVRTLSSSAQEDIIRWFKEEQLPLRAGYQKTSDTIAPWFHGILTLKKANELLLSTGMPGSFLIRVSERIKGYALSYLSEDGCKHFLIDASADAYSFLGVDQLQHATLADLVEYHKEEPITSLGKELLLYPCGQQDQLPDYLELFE
Chain of UniProt Q13190 (Q13190 whole entry): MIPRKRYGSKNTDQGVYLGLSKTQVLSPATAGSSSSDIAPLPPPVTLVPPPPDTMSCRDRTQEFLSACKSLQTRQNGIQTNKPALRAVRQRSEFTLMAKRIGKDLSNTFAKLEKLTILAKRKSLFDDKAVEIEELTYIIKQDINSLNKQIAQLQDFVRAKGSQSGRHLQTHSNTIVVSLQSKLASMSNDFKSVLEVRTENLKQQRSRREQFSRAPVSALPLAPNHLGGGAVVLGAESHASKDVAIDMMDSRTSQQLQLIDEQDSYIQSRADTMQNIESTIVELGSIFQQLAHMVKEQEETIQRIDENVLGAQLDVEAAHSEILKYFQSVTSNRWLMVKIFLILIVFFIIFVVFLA
Chain of UniProt Q99460 (Q99460 whole entry): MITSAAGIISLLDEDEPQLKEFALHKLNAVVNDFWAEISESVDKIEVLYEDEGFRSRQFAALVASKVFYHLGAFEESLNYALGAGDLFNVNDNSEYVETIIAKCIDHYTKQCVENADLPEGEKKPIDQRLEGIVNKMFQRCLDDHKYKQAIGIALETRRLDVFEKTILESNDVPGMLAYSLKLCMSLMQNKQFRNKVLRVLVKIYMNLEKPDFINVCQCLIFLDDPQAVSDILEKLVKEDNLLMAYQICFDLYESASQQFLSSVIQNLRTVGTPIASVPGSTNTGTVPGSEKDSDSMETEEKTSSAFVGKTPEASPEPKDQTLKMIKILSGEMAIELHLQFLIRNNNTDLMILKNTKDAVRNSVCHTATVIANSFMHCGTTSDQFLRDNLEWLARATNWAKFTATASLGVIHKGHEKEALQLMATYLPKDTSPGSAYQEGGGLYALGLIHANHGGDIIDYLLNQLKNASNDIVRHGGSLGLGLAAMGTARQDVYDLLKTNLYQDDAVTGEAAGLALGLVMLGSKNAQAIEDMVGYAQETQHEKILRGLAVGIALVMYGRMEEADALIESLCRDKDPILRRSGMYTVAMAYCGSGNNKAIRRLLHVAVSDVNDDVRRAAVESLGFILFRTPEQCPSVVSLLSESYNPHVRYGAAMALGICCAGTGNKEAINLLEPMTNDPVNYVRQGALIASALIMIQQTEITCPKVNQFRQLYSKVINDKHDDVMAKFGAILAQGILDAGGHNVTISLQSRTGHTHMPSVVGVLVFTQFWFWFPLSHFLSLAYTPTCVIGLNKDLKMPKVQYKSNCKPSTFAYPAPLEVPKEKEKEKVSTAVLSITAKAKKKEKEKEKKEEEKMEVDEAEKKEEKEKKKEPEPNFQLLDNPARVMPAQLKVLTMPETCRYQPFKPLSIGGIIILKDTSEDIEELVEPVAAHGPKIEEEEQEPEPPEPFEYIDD
Chain of UniProt Q99623 (Q99623 whole entry): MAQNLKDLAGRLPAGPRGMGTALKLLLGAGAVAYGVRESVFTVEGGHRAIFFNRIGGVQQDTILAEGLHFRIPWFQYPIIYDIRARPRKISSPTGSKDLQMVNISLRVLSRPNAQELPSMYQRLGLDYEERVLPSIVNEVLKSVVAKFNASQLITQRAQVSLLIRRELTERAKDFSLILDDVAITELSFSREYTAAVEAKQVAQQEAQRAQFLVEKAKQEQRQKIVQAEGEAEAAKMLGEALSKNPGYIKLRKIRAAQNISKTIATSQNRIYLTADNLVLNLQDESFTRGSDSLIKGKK
Chain of UniProt Q9Y6R0 (Q9Y6R0 whole entry): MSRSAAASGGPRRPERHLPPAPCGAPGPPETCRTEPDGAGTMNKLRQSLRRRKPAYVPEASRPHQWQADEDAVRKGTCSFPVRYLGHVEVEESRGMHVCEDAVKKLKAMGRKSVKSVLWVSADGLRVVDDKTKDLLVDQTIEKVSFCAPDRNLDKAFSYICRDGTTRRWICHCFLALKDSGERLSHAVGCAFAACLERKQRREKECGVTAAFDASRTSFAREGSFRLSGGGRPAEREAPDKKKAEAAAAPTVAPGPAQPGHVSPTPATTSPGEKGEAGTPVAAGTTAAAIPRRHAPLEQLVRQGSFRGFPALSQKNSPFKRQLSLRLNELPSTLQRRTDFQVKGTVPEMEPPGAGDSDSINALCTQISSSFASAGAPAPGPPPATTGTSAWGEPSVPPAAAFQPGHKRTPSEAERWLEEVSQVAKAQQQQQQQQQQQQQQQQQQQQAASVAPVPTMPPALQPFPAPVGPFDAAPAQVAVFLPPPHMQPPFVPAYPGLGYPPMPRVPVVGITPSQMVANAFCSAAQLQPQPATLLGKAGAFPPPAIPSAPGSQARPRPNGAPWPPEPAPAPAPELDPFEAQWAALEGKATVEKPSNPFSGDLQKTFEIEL
Chain of UniProt Q32NC0 (Q32NC0 whole entry): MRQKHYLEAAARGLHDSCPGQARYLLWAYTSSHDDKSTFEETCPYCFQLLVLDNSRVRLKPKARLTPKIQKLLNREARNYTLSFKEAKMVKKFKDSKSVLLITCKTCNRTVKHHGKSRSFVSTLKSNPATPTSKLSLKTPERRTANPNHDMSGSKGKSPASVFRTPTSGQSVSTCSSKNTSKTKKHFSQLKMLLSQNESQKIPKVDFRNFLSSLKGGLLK
Chain of UniProt O95208 (O95208 whole entry): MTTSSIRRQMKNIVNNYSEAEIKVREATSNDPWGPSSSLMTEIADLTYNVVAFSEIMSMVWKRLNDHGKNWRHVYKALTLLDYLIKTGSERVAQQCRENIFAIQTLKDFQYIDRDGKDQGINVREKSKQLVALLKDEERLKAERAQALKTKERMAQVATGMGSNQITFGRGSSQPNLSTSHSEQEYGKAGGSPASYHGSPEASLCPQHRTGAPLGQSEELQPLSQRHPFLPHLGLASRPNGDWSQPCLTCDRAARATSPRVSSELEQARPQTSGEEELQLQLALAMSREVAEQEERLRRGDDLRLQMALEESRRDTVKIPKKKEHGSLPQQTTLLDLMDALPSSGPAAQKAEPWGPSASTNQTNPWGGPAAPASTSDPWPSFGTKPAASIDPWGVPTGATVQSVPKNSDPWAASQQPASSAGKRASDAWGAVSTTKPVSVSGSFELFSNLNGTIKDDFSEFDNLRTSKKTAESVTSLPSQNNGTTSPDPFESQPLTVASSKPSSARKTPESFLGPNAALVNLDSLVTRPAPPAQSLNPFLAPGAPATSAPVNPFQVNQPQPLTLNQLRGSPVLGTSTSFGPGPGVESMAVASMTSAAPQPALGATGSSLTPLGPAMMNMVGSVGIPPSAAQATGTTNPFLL
Chain of UniProt Q9Y547 (Q9Y547 whole entry): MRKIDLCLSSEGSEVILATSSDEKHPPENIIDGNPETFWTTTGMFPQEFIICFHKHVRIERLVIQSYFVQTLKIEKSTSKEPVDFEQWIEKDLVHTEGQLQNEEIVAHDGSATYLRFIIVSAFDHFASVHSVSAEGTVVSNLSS

Target	thermal stability z-score
YIPF4 (UniProt Q9BSR8)	-0.44
HACL1 (UniProt Q9UJ83)	-0.331
HNRNPDL (UniProt O14979)	0.34
EPN2 (UniProt O95208)	0.804
RANBP10 (UniProt Q6VN20)	0.385
RAD23A (UniProt P54725)	0.234
LRRC57 (UniProt Q8N9N7)	-0.185
BLOC1S4 (UniProt Q9NUP1)	0.395
UBE2F (UniProt Q969M7)	-0.0251
ZFYVE9 (UniProt O95405)	-0.0701
LAMTOR5 (UniProt O43504)	-0.405
STX5 (UniProt Q13190)	-0.95
UIMC1 (UniProt Q96RL1)	0.424
NUMBL (UniProt Q9Y6R0)	0.451
PDPR (UniProt Q8NCN5)	0.429
CDYL (UniProt Q9Y232)	1.28
LYAR (UniProt Q9NX58)	-0.893
SPTLC1 (UniProt O15269)	-0.72

Target	thermal stability z-score
PHB2 (UniProt Q99623)	0.289
MTG2 (UniProt Q9H4K7)	0.00401
MKNK2 (UniProt Q9HBH9)	0.232
SYVN1 (UniProt Q86TM6)	-2.05
SH2D4A (UniProt Q9H788)	0.021
FA2H (UniProt Q7L5A8)	0.132
ETF1 (UniProt P62495)	0.513
ADCK3 (UniProt Q8NI60)	0.19
PDSS1 (UniProt Q5T2R2)	0.466
MOCS2	0.303
RBPJ (UniProt Q06330)	-0.0841
NMI (UniProt Q13287)	0.324
SLC35D1 (UniProt Q9NTN3)	-2.36
SSX2IP (UniProt Q9Y2D8)	-0.143
C18ORF21 (UniProt Q32NC0)	-0.189
LRRC40 (UniProt Q9H9A6)	0.108
PSMD1 (UniProt Q99460)	0.343
HSPB11 (UniProt Q9Y547)	0.124

Compound: O=[As]([O-])(O)O.[K+] [potassium arsenate]
Experiment: as above
Settings: HeLa; arsenate concentration 1 mM
Procedure: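 Cellular thermal proteome profiling in HeLa cells treated with 1 mM arsenate for 1 h (DMSO pretreatment), heated to ten temperatures (37-66.3 °C). Soluble protein was quantified by TMT mass spectrometry relative to DMSO controls; the thermal stability score was transformed to a z-score; mean of n = 3 experiments.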

Target	thermal stability z-score
RPAP3 (UniProt Q9H6T3)	0.38
RPL9 (UniProt P32969)	-0.232
UBA2 (UniProt Q9UBT2)	-0.426
HMOX1 (UniProt P09601)	-0.107
MED1 (UniProt Q15648)	0.125
PFKP (UniProt Q01813)	0.0448
KIF5B (UniProt P33176)	1.17
C9ORF40 (UniProt Q8IXQ3)	0.0372
TSC22D4 (UniProt Q9Y3Q8)	-0.0991
EDF1 (UniProt O60869)	0.199
CISD1 (UniProt Q9NZ45)	-0.578
IMPA2 (UniProt O14732)	-0.728
SLC35E1 (UniProt Q96K37)	-1.27
SEC61B (UniProt P60468)	0.265
DR1 (UniProt Q01658)	-0.043
TRMT10C (UniProt Q7L0Y3)	0.226
RPL30 (UniProt P62888)	-0.666
RNF219 (UniProt Q5W0B1)	0.0297
PPP1R3D (UniProt O95685)	-0.0465
COPS7B (UniProt Q9H9Q2)	-0.241
KANK2 (UniProt Q63ZY3)	-0.109
SUPT5H (UniProt O00267)	-0.186
TRIO (UniProt O75962)	0.0185
CBX4 (UniProt O00257)	0.529

Target	thermal stability z-score
FLVCR1 (UniProt Q9Y5Y0)	-0.43
GEMIN2 (UniProt O14893)	-0.345
VPS39 (UniProt Q96JC1)	0.407
GK (UniProt P32189)	0.46
BRF1 (UniProt Q92994)	0.035
HSD17B4 (UniProt P51659)	0.201
ISCU (UniProt Q9H1K1)	-1.15
NAXD (UniProt Q8IW45)	0.0249
MICU2 (UniProt Q8IYU8)	0.583
DCPS (UniProt Q96C86)	-0.92
RAB21 (UniProt Q9UL25)	0.119
YIPF4 (UniProt Q9BSR8)	-0.689
HACL1 (UniProt Q9UJ83)	0.107
HNRNPDL (UniProt O14979)	-1.85
EPN2 (UniProt O95208)	-0.0882
RANBP10 (UniProt Q6VN20)	0.3
RAD23A (UniProt P54725)	-0.142
LRRC57 (UniProt Q8N9N7)	-0.186
BLOC1S4 (UniProt Q9NUP1)	0.401
UBE2F (UniProt Q969M7)	-0.224
ZFYVE9 (UniProt O95405)	-0.021
LAMTOR5 (UniProt O43504)	0.0111
STX5 (UniProt Q13190)	0.0014
UIMC1 (UniProt Q96RL1)	0.872

Target	thermal stability z-score
NUMBL (UniProt Q9Y6R0)	-1.68
PDPR (UniProt Q8NCN5)	-0.181
CDYL (UniProt Q9Y232)	0.0814
LYAR (UniProt Q9NX58)	-3.87
SPTLC1 (UniProt O15269)	0.833
PHB2 (UniProt Q99623)	0.108
MTG2 (UniProt Q9H4K7)	0.127
MKNK2 (UniProt Q9HBH9)	0.192
SYVN1 (UniProt Q86TM6)	-0.421
SH2D4A (UniProt Q9H788)	0.112
FA2H (UniProt Q7L5A8)	-0.327
ETF1 (UniProt P62495)	-0.148
ADCK3 (UniProt Q8NI60)	0.0575
PDSS1 (UniProt Q5T2R2)	0.423
MOCS2	-0.289
RBPJ (UniProt Q06330)	-0.676
NMI (UniProt Q13287)	2.1
SLC35D1 (UniProt Q9NTN3)	-1.34
SSX2IP (UniProt Q9Y2D8)	-0.0542
C18ORF21 (UniProt Q32NC0)	-2.28
LRRC40 (UniProt Q9H9A6)	0.245
PSMD1 (UniProt Q99460)	0.245
HSPB11 (UniProt Q9Y547)	-0.48
